Experimental data published in patent US11903935B2, “Inhibitors of SARM1 NADase activity and uses thereof” (Washington University, priority 2016, dated 2024).

Key:
[1] = target: T1, SARM1 TIR (Homo sapiens (Human), UniProt Q6SZW1); experiment: NADase assay with purified bacterial hSARM1-TIR, enzyme inhibition studies; assay type: biochemical; conditions: 1 mM in the reaction mixture, 5 min
Target sequence in this assay (Q6SZW1 other isoform, or with tags, fused parts or gaps): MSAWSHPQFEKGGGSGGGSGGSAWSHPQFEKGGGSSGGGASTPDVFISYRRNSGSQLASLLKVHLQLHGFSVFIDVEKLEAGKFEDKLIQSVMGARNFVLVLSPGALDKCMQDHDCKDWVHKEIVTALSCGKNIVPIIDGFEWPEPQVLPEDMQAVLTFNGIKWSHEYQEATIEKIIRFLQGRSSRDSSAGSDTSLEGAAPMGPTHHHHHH
Description: Ten microliters of beads incubated with the indicated cell lysate were incubated with 5 μM NAD in reaction buffer (92.4 mM NaCl and 0.64×PBS). Reactions were carried out at 25° C. for the indicated amount of time and stopped by addition of 1M of perchloric acid (HClO4) and placing the tube on ice. NAD+ metabolites were extracted using HClO4/K2CO3 method and quantified by HPLC (see HPLC for metabolite measurement).
Metabolites were isolated from enzyme reaction mixture by extracting with 1M HClO4, then neutralized with 3M K2CO3, and followed by separation by centrifugation. The supernatant (90 μL) containing the extracted metabolites was mixed with 0.5M Potassium Phosphate buffer (10 μL) and metabolites were analyzed by HPLC (Nexera X2) with Kinetex (100×3 mm, 2.6 μm; Phenomenex) column. […] The levels for each compound in each experimental sample were normalized to the 0 min time point that was analyzed concurrently.
The reaction was stopped after 5 min and NAD+ metabolites were extracted by the perchloric acid method and measured by HPLC as indicated above.

[2] = target: T1, SARM1 TIR; experiment: SARM1 TIR-based assay (bacterially expressed, tagged SARM1 TIR fragment on beads); assay type: biochemical; conditions: compound at 5 μM, 5 μM NAD+
Text: The present Example describes a SARM1 TIR-based Assay. This assay is similar to the assay described in Example 1, but allows for the identification and/or characterization of compounds that directly interact with the TIR domain, whereas the assay described in Example 1 can also identify compounds that disrupt SAM domain interactions. This assay makes use of the bacterial expression of a tagged version of the SARM1 TIR fragment that can be affinity purified. Displaying this artificial SARM1 TIR domain on a solid surface (i.e. affinity beads) generates an active NAD+ cleavage enzyme.
The TIR domain of SARM1 was tagged with a tandem STREP-TAG® at the N-terminus, and a polyhistidine tag at the C-terminus, and was cloned into a pET30a+ plasmid. The construct was then transformed into SHuffle® T7 Express Competent E. coli (New England BioLabs, Ipswich, MA) and single colonies were grown overnight. The next day, cultures were diluted in LB media, grown at 30° C. until they reached A600=0.4-0.8, when IPTG (0.5 mM final concentration) was added. The bacteria were grown for an additional 4 h, pelleted by centrifugation, washed with PBS and stored at −80° C. For protein purification, the frozen bacterial pellet was thawed on ice, resuspended in binding buffer (without protease inhibitors) and incubated with 100 μg/mL lysozyme for 15 min on ice. Protease inhibitor cocktail was then added and the cells were lysed by sonication.
The SARM1 TIR protein was first purified by Strep Tag affinity methods where bacterial lysates were incubated with […] (STREP-TACTIN®, IBA GmBH, Gottingen Germany) type 3 XT beads suspension (IBA Lifesciences) for 30 min. The beads were then washed three times with binding buffer, and bound proteins were eluted from MagStrep type 3 XT beads with 22.5 mM biotin for 25 min. Supernatant containing the eluted protein was separated from MagStrep beads, and incubated with 10 μL Co2+ DYNABEAD® (ThermoFisher Scientific, Waltham, MA) suspension for 30 min to bind SARM1-TIR proteins via the His tag. The beads were then washed at least two times with binding buffer and resuspended in 100 μL of binding buffer for NADase assay.
Ten microliters of purified SARM1-TIR laden beads were incubated with 5 μM NAD+ in reaction buffer (92.4 mM NaCl and 0.64×PBS). Reactions were carried out at 25° C. for the indicated amount of time and stopped by addition of 1M of perchloric acid (HClO4) and placing the tube on ice. NAD+ metabolites were extracted using HClO4/K2CO3 method and quantified by HPLC (see metabolite measurement below). For LC-MS/MS analysis, the extraction was performed using 50% methanol in distilled water and chloroform (see LC-MS/MS metabolite measurement below). […] Select potent inhibitors (622608, 622689) identified from SARM1 SAM-TIR lysate screen were added to the reaction at 5 μM. NAD normalized to control at 0 min.
Metabolites were isolated from enzyme reaction mixture by extracting with 1M HClO4, then neutralized with 3M K2CO3, and followed by separation by centrifugation. The supernatant (90 μL) containing the extracted metabolites was mixed with 0.5M Potassium Phosphate buffer (10 μL) and metabolites were analyzed by HPLC (Nexera X2) with KINETEX® (100×3 mm, 2.6 μm; PHENOMENEX®) column and metabolites are monitored with absorbance at 254 nm. Internal standards for NAD+, Nicotinamide (Nam), ADP Ribose (ADPR) were used to generate standard curves for quantification of the respective compounds. The levels for each compound in each experimental sample was normalized to the 0 min time point that was analyzed concurrently.
These analogs were tested using an assay that makes use of a bacterially-expressed tagged version of the SARM1 TIR fragment, as described in Example 2. Displaying this artificial SARM1 TIR domain on a solid surface (i.e. affinity beads) generates an active NAD+ cleavage enzyme.

[3] = target: SARM1 SAM-TIR lysate (Homo sapiens (Human), UniProt Q6SZW1); experiment: Luminescence-based NAD+ Glo (NAD+ cycling) assay with SAM-TIR lysate; assay type: biochemical
Text: Luminescence-based assay. This assay can complement the results obtained by HPLC, and can permit a higher throughput of compound library screening than is possible with HPLC methods. This assay is an adaptation of the NAD+/NADH-GLO™ assay (Promega G9071, Promega Corporation, Madison, WI). In this assay, NAD+ cycling enzymes convert NAD+ into NADH. In the presence of NADH, the reductase enzymatically converts a pro-luciferin reductase substrate into luciferin. Luciferin is detected using ULTRA-GLO™ rLuciferase, and the chemiluminescence intensity is proportional to the amount of NAD+ and NADH in the sample. Under the present assay conditions, the amount of NAD+ and NADH present in the lysate is undetectable with this assay, precluding any endogenous contribution to the final NAD+ detected. The assay was set up as follows: 2 μl candidate inhibitor (final concentration 1 μM, 2% DMSO), 0.07 μg lysate (2 μl), and 2 μl of 400 nM NAD+. The reaction was incubated at 37° C. for 60 min, then 6 μl NAD+/NADH-GLO™ detection reagent was added. After 30 min at room temperature, the luminescent signals were quantified using a CYTATION™ 5 imaging reader (BIOTEK®).

[4] = tested on: DRG neurons; experiment: In vitro axon degeneration assay after axotomy (degeneration index); assay type: cell-based, mouse
Description: Mouse dorsal root ganglion (DRG) were dissected from embryonic days 13.5 CD1 mouse embryo (˜50 ganglion per embryo) and incubated with 0.05% Trypsin solution containing 0.02% EDTA (Gibco) at 37° C. for 15 min. Then cell suspensions are triturated by gentle pipetting and washed 3 times with DRG growth medium (Neurobasal medium (Gibco) containing 2% B27 (Invitrogen), 100 ng/ml 2.5S NGF (Harlan Bioproduts), 1 μM uridine (Sigma), 1 μM 5-fluoro-2′-deoxyuridine (Sigma), penicillin, and streptomycin). Cells were suspended in DRG growth medium at a ratio of 100 μl medium/50 DRGs. The cell density of these suspensions was ˜7×10^6 cells/ml. Cell suspension (10 μl) was placed in the center of the well using 24-well tissue culture plates (Corning) coated with poly-D-Lysine (0.1 mg/ml; Sigma) and laminin (3 μg/ml; Invitrogen). […]
Axonal degeneration was induced by axotomy or by the addition of vincristine (0.04 μM) using DRG drop cultures in 96 well at DIV 6. […] Axon degeneration was quantified using degeneration index (DI) calculated using ImageJ (NIH, Sasaki et al., 2009, J. Neurosci., […]: 5525-5535). […] The DI was calculated from axon images from the same fields before (0 hour) and after (9-72 hours) axotomy. […] Axon degeneration was monitored by imaging axons before injury, and various time points after axotomy.

[5] = target: T1, SARM1 TIR; experiment: In vitro NADase assay with SARM1-TIR complexes purified from NRK1-HEK293T cells, substrate specificity; assay type: biochemical
Description: Approximately 10 million cells were plated and transfected the next day with 15 μg of StrepTag SARM1-TIR construct DNA using X-tremeGENE™ 9 reagent (Sigma-Aldrich, St. Louis MO). […] After 2 days the cells were harvested and lysed by sonication in binding buffer (50 mM Sodium Phosphate buffer pH 8, 300 mM Sodium Chloride, 0.01% Tween-20, protease inhibitor tablets). For single step affinity purification, the whole cell lysates were incubated with 20 μL MagStrep (Strep-Tactin) type 3 XT beads suspension (IBA Lifesciences) for 30 min. The beads were then washed three times with binding buffer and resuspended in 100 μL of binding buffer for enzymatic assays and other downstream applications.
Ten microliters of beads incubated with the indicated cell lysate were incubated with 5 μM NAD in reaction buffer (92.4 mM NaCl and 0.64×PBS). […] NAD+ metabolites were extracted using HClO4/K2CO3 method and quantified by HPLC (see HPLC for metabolite measurement). […]
Metabolites were isolated from enzyme reaction mixture by extracting with 1M HClO4, then neutralized with 3M K2CO3, and followed by separation by centrifugation. The supernatant (90 μL) containing the extracted metabolites was mixed with 0.5M Potassium Phosphate buffer (10 μL) and metabolites were analyzed by HPLC (Nexera X2) with Kinetex (100×3 mm, 2.6 μm; Phenomenex) column. […]
Target sequence in this assay (Q6SZW1 561-724): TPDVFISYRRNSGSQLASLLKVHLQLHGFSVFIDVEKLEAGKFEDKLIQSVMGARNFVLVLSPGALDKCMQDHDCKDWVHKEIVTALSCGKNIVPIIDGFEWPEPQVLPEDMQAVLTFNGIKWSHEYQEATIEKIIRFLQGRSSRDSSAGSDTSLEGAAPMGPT

Chain of SARM1 SAM-TIR lysate (Q6SZW1 other isoform, or with tags, fused parts or gaps): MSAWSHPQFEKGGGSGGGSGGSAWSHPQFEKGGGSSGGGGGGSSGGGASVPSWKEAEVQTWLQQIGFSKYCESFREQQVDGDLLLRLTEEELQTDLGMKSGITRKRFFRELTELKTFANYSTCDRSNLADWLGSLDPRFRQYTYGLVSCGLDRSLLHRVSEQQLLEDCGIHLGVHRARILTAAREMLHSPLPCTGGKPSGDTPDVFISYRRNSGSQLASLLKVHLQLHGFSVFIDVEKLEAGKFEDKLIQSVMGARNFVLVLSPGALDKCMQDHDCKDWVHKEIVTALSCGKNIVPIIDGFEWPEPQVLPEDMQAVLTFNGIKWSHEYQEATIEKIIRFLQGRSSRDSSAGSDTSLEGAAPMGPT

Nc1ncnc2c1ncn2[C@@H]1O[C@H](COP(=O)(O)OP(=O)(O)OC[C@H]2OC(O)[C@H](O)[C@@H]2O)[C@@H](O)[C@H]1O (stereo partly drawn) [ADPR, ADP Ribose]
inhibition of SARM1-TIR NADase activity [1]: did not inhibit

Br.CN(C)c1nc(=NCc2ccco2)ss1 [NSC622608]
inhibition of NADase activity of purified SARM1 TIR [2]: inhibit NADase activity of purified SARM1 TIR | IC50 [3]: ~150 nM | dose dependence of inhibition of axon degeneration ([4]; 0.05 to 5 μM, added 30 min before axotomy): dose dependent inhibition of axon degeneration | protection from axon degeneration (degeneration index) ([4]; 24 h after axotomy): significant protection

Nc1ncnc2c1ncn2[C@@H]1O[C@H](COP(=O)(O)OP(=O)(O)OC[C@H]2O[C@@H]([n+]3cccc(C(=O)O)c3)[C@H](O)[C@@H]2O)[C@@H](O)[C@H]1O [NaAD, Nicotinic Acid Adenine Dinucleotide]
degradation by wild type SARM1-TIR complexes (substrate specificity) [5]: do not degrade
